# Experiments:
# [1] = system: HT-29 human colon carcinoma; test: HT-29 xenograft, A12 with CPT-11 or paclitaxel; type: in vivo, nu/nu mice; conditions: for inhibition of growth of HT-29 xenografts compared to TBS control: single agent
# Protocol: […] nu/nu mice were injected subcutaneously with HT-29 human colon carcinoma cell suspension, at 5×10^6 cells in 0.4 ml mixed 1:1 with Matrigel. […] All treatments were administered by intraperitoneal injection.
# Treatment continued for six weeks and tumor measurements were recorded twice weekly using the formula Volume=(π/6)l×w^2. At day 21 four animals per group were sacrificed and the tumors resected for histological evaluation. Treatment and tumor measurements continued on the remaining animals until day 40. At that time final tumor measurements were recorded, animals sacrificed, and four per group had tumor resected for endpoint histological evaluation.
# [2] = system: BxPC-3 human pancreatic carcinoma cells; test: BxPC-3 xenograft, A12 with CPT-11 or gemcitabine; type: in vivo, athymic nu/nu mice; conditions: for animals with partial tumor regressions: after five weeks of treatment
# Protocol: Athymic nu/nu mice were injected subcutaneously with 2×10^6 BxPC-3 human pancreatic carcinoma cells mixed 1:1 with Matrigel. […] All treatments were administered by intraperitoneal injection. Tumor measurements were recorded twice weekly using the formula Volume=(π/6)l×w^2.
# At day 18 three animals per group were sacrificed and the tumors resected for midpoint histological evaluation. Treatment and tumor measurements continued on the remaining animals until day 44 with the exception of the TBS group. […] At termination of the study final tumor measurements were recorded, animals sacrificed, and four per group had tumors resected for endpoint histological evaluation.
# [3] = system: HT-29 human colorectal cancer cells; test: HT-29 xenograft, 2F8 alone or with CPT-11; type: in vivo, athymic nude (nu/nu) mice; conditions: 2F8 0.5 mg or 1 mg IP every three days; CPT-11 100 mg/kg IP once a week
# Protocol: We were interested to determine if the anti-IGF-IR antibodies were capable of inhibiting human tumor growth in vivo in a nude mouse xenograft model. Tumors were induced in 3-4 week old athymic nude (nu/nu) mice by subcutaneous injection of 2-3 million viable HT-29 human colorectal cancer cells in cell culture medium. The tumors were allowed to establish and antibody treatment started when the tumor volume reached 200 mm^3. Ten animals were injected with tumor cells per treatment group. Antibody was injected intraperitoneally (IP) every three days at 1 mg or 0.5 mg in 0.5 ml TBS. The drug irenotecan (CPT-11) (LKT Laboratories) was injected IP (100 mg/kg) once a week for four weeks from the initiation of antibody treatment. Control animals received a class matched irrelevant human IgG antibody. Tumor measurements were performed at regular intervals using Vernier calipers, measuring height, width, and length and calculated to determine the total tumor volume. The study was terminated when control tumors reached 3000 mm^3.
# [4] = day 12, ip, A12 1 mg 3 times per week, irinotecan 2 mg or paclitaxel 121 μg every 7 days
# [5] = day 19, ip, A12 1 mg 3 times per week, irinotecan 1 mg or gemcitabine 2.5 mg every 7 days
SMILES,"T/C % [1, 4] [%]","T/C % ([1]; day 15, same regimens) [%]","T/C % ([1]; day 19, same regimens) [%]","T/C % ([1]; day 22, same regimens) [%]","T/C % ([1]; day 26, same regimens) [%]","T/C % ([1]; day 29, same regimens) [%]","T/C % ([1]; day 33, same regimens) [%]","T/C % ([1]; day 36, same regimens) [%]","T/C % ([1]; day 40, same regimens) [%]",inhibition of growth of HT-29 xenografts compared to TBS control [1],animals with partial tumor regressions [2],"T/C % [2, 5] [%]","T/C % ([2]; day 23, same regimens) [%]","T/C % ([2]; day 26, same regimens) [%]","T/C % ([2]; day 30, same regimens) [%]","T/C % ([2]; day 32, same regimens) [%]","T/C % ([2]; day 37, same regimens) [%]",also measured
CC(=O)O[C@H]1C(=O)[C@@]2(C)[C@H]([C@H](OC(=O)c3ccccc3)[C@]3(O)C[C@H](OC(=O)[C@H](O)[C@@H](NC(=O)c4ccccc4)c4ccccc4)C(C)=C1C3(C)C)[C@]1(OC(C)=O)CO[C@@H]1C[C@@H]2O [paclitaxel],66,59,62,56,54,55,52,45,52,significantly (P<0.02) inhibited,,,,,,,,
"Nc1ccn([C@@H]2O[C@H](CO)[C@@H](O)C2(F)F)c(=O)n1 [Gemcitabine, gemcitabine]",,,,,,,,,,,no tumor regressions,68,65,58,56,48,37,"Regressions (individual tumor volumes < day 1 of treatment) ([2]; day 19, animals regressing/animals in group): 0/11; Regressions (individual tumor volumes < day 1 of treatment) ([2]; day 23): 0/8; Regressions (individual tumor volumes < day 1 of treatment) ([2]; day 26): 0/8; Regressions (individual tumor volumes < day 1 of treatment) ([2]; day 30): 0/8; Regressions (individual tumor volumes < day 1 of treatment) ([2]; day 32): 0/8; Regressions (individual tumor volumes < day 1 of treatment) ([2]; day 37): 0/8; Regressions (individual tumor volumes < day 1 of treatment) ([2]; day 41): 0/8; Regressions (individual tumor volumes < day 1 of treatment) ([2]; day 44): 0/7"
"CCc1c2c(nc3ccc(OC(=O)N4CCC(N5CCCCC5)CC4)cc13)-c1cc3c(c(=O)n1C2)COC(=O)[C@]3(O)CC [CPT-11, irinotecan]",63,59,61,52,47,45,40,40,41,significantly (P<0.02) inhibited,no tumor regressions,52,45,35,34,34,26,inhibition of tumor growth [3]: responses were similar to treatment with CPT-11 alone
